Experimental findings from patent publication US8946197B2, “Transglutaminase TG2 inhibitors, pharmaceutical compositions, and methods of use thereof” (CHDI Foundation, Inc., priority 2009, dated 2015) are described below.

Where “and” joins values, the source holds several entries; their conditions need not be identical. Identical values can stand only once.

This test addresses T1, human TG2 (Homo sapiens, UniProt P21980).
T1 sequence (P21980 1-687): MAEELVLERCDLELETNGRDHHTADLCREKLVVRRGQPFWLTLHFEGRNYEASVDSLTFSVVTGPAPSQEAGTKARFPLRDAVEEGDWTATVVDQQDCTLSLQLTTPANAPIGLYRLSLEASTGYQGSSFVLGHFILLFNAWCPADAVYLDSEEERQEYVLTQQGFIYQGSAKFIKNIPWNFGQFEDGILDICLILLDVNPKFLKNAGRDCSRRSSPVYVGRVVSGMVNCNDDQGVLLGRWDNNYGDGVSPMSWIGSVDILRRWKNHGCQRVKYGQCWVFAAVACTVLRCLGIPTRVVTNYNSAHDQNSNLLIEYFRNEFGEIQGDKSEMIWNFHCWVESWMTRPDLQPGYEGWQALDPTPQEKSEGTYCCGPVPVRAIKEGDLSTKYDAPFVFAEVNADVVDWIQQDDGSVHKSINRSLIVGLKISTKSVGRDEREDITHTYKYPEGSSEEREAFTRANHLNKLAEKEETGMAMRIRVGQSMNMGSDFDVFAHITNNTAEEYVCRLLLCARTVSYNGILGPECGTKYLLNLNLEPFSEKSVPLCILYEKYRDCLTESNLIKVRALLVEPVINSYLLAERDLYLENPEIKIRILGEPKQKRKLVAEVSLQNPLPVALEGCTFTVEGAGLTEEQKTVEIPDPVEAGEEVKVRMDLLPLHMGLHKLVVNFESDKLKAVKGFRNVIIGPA
Nature of the test: fluorescent screening assay for human TG2. The test is classed as biochemical. As to conditions: 20 nM TG2, 8 μM N,N-dimethylated Casein, 16 μM KxD, pH 7.4, 37° C. How it is done: (§1) The fluorescent screening assay for human TG2 was performed as described herein: Assay conditions were 20 nM TG2, 8 μM N,N-dimethylated Casein (NMC) and 16 μM K×D (used for all transglutaminase assays) in 25 mM Hepes, pH 7.4, 250 mM NaCl, 2 mM MgCl2, 0.5 mM CaCl2, 0.2 mM DTT, 0.05% Pluronic F-127 at 37° C. A time point was taken with a microplate reader (Safire or Ultra, Tecan; ex: 350 nm, em: 535 nm) every 3 minutes for up to 2 hours and the initial linear reaction progress was used to determine the reaction velocity as a measure for enzyme activity. Assay conditions were identical for human TG6 and similar for human TG1 and mouse TG2 apart from enzyme concentration (mTG2 at 5 nM; TG1 at 10 nM) and CaCl2 concentration (0.2 mM for mTG2; 0.05 mM for TG1). Factor XIIIa was activated using 0.1 μg/μl thrombin (Sigma) in 35 mM Tris pH 8.0 for 20 min at 30° C. and the transamidation reaction was performed with 20 nM Factor XIIIa in 50 mM Tris pH 8.0, 1.25 mM CaCl2, 0.05% Pluronic, 0.2 mM DTT. TG3 was activated with 0.02 μg/μl thrombin under the same conditions as Factor XIIIa and assay conditions were 10 nM TG3 in 50 mM Hepes, pH 8, 20 mM CaCl2, 0.2 mM DTT, 0.05% Pluronic F-127.
as §1, with “A” for “The”
For the molecule `C=CC(=O)Nc1ccc(S(=O)(=O)N2CCN(C(=O)OCc3cccc(F)c3)CC2)cc1` [4-(4-Acryloylamino-benzenesulfonyl)-piperazine-1-carboxylic acid 3-fluoro-benzyl ester], the IC50 was 0.1 to 1 µM and < 0.1 µM.
`C=CC(=O)Nc1ccc(S(=O)(=O)N2CCN(C34CC5CC(CC(C5)C3)C4)CC2)cc1` [N-[4-(4-Adamantan-1-yl-piperazine-1-sulfonyl)-phenyl]-acrylamide] yielded a 50% inhibitory concentration (IC50) of 1 to 25 µM.
Take `C=CC(=O)Nc1ccc(S(=O)(=O)N2CCN(C(=O)OCc3ccc(CCCC)cc3)CC2)cc1` [4-(4-Acryloylamino-benzenesulfonyl)-piperazine-1-carboxylic acid 4-butyl-benzyl ester]: the IC50 is 1 to 25 µM.
With `C=CC(=O)Nc1ccc(S(=O)(=O)N(C)Cc2csc(N3CCOCC3)n2)cc1` [N-{4-[Methyl-(2-morpholin-4-yl-thiazol-4-ylmethyl)-sulfamoyl]-phenyl}-acrylamide], the IC50 is 1 to 25 µM.
In the case of `C=CC(=O)Nc1ccc(S(=O)(=O)N2CCC(C(=O)N3CCCCC3)CC2)cc1` [N-{4-[4-(Piperidine-1-carbonyl)-piperidine-1-sulfonyl]-phenyl}-acrylamide], the IC50 is 0.1 to 1 µM and < 0.1 µM.
On to `C=CC(=O)Nc1ccc(S(=O)(=O)NCc2ccc(-c3ccccc3)nc2)cc1` [N-{4-[(6-Phenyl-pyridin-3-ylmethyl)-sulfamoyl]-phenyl}-acrylamide], for which the IC50 was 1 to 25 µM.
Take `C=CC(=O)Nc1cccc(S(=O)(=O)N2CCN(c3ccccc3)CC2)c1` [N-[3-(4-Phenyl-piperazine-1-sulfonyl)-phenyl]-acrylamide]: the IC50 lay within 1 to 25 µM.
With `C=CC(=O)Nc1ccc(S(=O)(=O)NC2CCCN(CC)C2)cc1` (stereo not drawn) [N-[4-(1-Ethyl-piperidin-3-ylsulfamoyl)-phenyl]-acrylamide], the IC50 is 1 to 25 µM.
The value for `C=CC(=O)Nc1ccc(S(=O)(=O)N2CCN(C(=O)Cc3cccc(Oc4ccccc4)c3)CC2)cc1` [N-(4-{4-[2-(3-Phenoxy-phenyl)-acetyl]-piperazine-1-sulfonyl}-phenyl)-acrylamide] was 0.1 to 1 µM and < 0.1 µM; that for `C=CC(=O)Nc1ccc(S(=O)(=O)N2CCN(c3nc4ccccc4o3)CC2)cc1` [N-[4-(4-Benzooxazol-2-yl-piperazine-1-sulfonyl)-phenyl]-acrylamide] was < 0.1 µM and 0.1 to 1 µM; that for `C=CC(=O)Nc1ccc(S(=O)(=O)N2CCN(C(=O)OCc3ccc(C(C)(C)C)cc3)CC2)cc1` [4-(4-Acryloylamino-benzenesulfonyl)-piperazine-1-carboxylic acid 4-tert-butyl-benzyl ester] was 1 to 25 µM.
The value for `C=CC(=O)Nc1ccc(S(=O)(=O)N2CCN(C(=O)C3CCOCC3)CC2)cc1` [N-{4-[4-(Tetrahydro-pyran-4-carbonyl)-piperazine-1-sulfonyl]-phenyl}-acrylamide] was 0.1 to 1 µM and < 0.1 µM.
With `C=CC(=O)Nc1ccc(S(=O)(=O)N2CCN(C(=O)OC(C)C)CC2)cc1` [4-(4-Acryloylamino-benzenesulfonyl)-piperazine-1-carboxylic acid isopropyl ester], the IC50 is 0.1 to 1 µM and < 0.1 µM.
As for `C=CC(=O)Nc1ccc(S(=O)(=O)N2CCN(C(=O)C3CC3)CC2)cc1` [N-[4-(4-Cyclopropanecarbonyl-piperazine-1-sulfonyl)-phenyl]-acrylamide], the IC50 was 0.1 to 1 µM and < 0.1 µM.
For the molecule `C=CC(=O)Nc1ccc(S(=O)(=O)N2CCN(Cc3ccc(-c4ccccc4)cc3)CC2)cc1` [N-[4-(4-Biphenyl-4-ylmethyl-piperazine-1-sulfonyl)-phenyl]-acrylamide], the IC50 was in the range of 1 to 25 µM.
`C=CC(=O)Nc1ccc(S(=O)(=O)N2CCC(c3ccco3)=Nc3ccccc32)cc1` [N-[4-(4-Furan-2-yl-2,3-dihydro-benzo[β][1,4]diazepine-1-sulfonyl)-phenyl]-acrylamide] showed an IC50 of 1 to 25 µM.
As for `C=CC(=O)Nc1ccc(S(=O)(=O)N2CCN(C(=O)C3CCCC3)CC2)cc1` [N-[4-(4-Cyclopentanecarbonyl-piperazine-1-sulfonyl)-phenyl]-acrylamide], the figure is 0.1 to 1 µM and < 0.1 µM; as for `C=CC(=O)Nc1ccc(S(=O)(=O)N2CCN(C(=O)C34CC5CC(CC(C5)C3)C4)CC2)c(F)c1` [N-{4-[4-(Adamantane-1-carbonyl)-piperazine-1-sulfonyl]-3-fluoro-phenyl}-acrylamide], 0.1 to 1 µM and < 0.1 µM; as for `C=CC(=O)Nc1ccc(S(=O)(=O)N2CCN(C(=O)N3C[C@@H](C)O[C@@H](C)C3)CC2)cc1` [N-{4-[4-(2,6-Dimethyl-morpholine-4-carbonyl)-piperazine-1-sulfonyl]-phenyl}-acrylamide], 0.1 to 1 µM and < 0.1 µM.
On to `CC(C)(C)OC(=O)N1CCN(S(=O)(=O)c2ccc(NC(=O)/C=C\Cl)cc2)CC1` [(Z)-tert-butyl 4-(4-(3-chloroacrylamido)phenylsulfonyl)piperazine-1-carboxylate], for which the IC50 is 0.1 to 1 µM.
For the molecule `C=CC(=O)Nc1ccc(S(=O)(=O)N2CCN(c3ncccn3)CC2)cc1` [N-[4-(4-Pyrimidin-2-yl-piperazine-1-sulfonyl)-phenyl]-acrylamide], the half-maximal inhibitory concentration (IC50) was < 0.1 µM and 0.1 to 1 µM.
Molecule `C=CC(=O)Nc1cccc(S(=O)(=O)N2CCN(CCc3ccccc3)CC2)c1` [N-[3-(4-Phenethyl-piperazine-1-sulfonyl)-phenyl]-acrylamide] returned an IC50 of 1 to 25 µM.
Turning to `C=CC(=O)Nc1ccc(S(=O)(=O)N2CCN(C(=O)OCc3ccccc3C)CC2)cc1` [4-(4-Acryloylamino-benzenesulfonyl)-piperazine-1-carboxylic acid 2-methyl-benzyl ester], the IC50 was 0.1 to 1 µM and < 0.1 µM.
As for `C=CC(=O)Nc1ccc(S(=O)(=O)N2CCN(c3ccnc(Cl)n3)CC2)cc1` [N-{4-[4-(2-Chloro-pyrimidin-4-yl)-piperazine-1-sulfonyl]-phenyl}-acrylamide], the figure is < 0.1 µM and 0.1 to 1 µM; as for `C=CC(=O)Nc1cccc(S(=O)(=O)N2CCN(CCCc3ccccc3)CC2)c1` [N-{3-[4-(3-Phenyl-propyl)-piperazine-1-sulfonyl]-phenyl}-acrylamide], 1 to 25 µM; as for `C=CC(=O)Nc1ccc(S(=O)(=O)N2CCN(c3ncccc3C(F)(F)F)CC2)cc1` [N-{4-[4-(3-Trifluoromethyl-pyridin-2-yl)-piperazine-1-sulfonyl]-phenyl}-acrylamide], 0.1 to 1 µM and < 0.1 µM.
`C=CC(=O)Nc1ccc(S(=O)(=O)N2CCN(c3cc(C)ccn3)CC2)cc1` [N-{4-[4-(4-Methyl-pyridin-2-yl)-piperazine-1-sulfonyl]-phenyl}-acrylamide]: the IC50 is < 0.1 µM and 0.1 to 1 µM.
As for `C=CC(=O)Nc1ccc(S(=O)(=O)N2CCN(c3nccc4ccccc34)CC2)cc1` [N-[4-(4-Isoquinolin-1-yl-piperazine-1-sulfonyl)-phenyl]-acrylamide], the figure is < 0.1 µM and 0.1 to 1 µM; as for `C=CC(=O)Nc1ccc(S(=O)(=O)N2CCN(C(=O)C3CC3c3ccccc3)CC2)cc1` (stereo not drawn) [N-{4-[4-(2-Phenyl-cyclopropanecarbonyl)-piperazine-1-sulfonyl]-phenyl}-acrylamide], 0.1 to 1 µM and < 0.1 µM; as for `CC#CC(=O)Nc1ccc(S(=O)(=O)N2CCN(C(=O)OC(C)(C)C)CC2)cc1` [4-[4-(1-Oxo-but-2-ynylamino)-benzenesulfonyl]-piperazine-1-carboxylic acid tert-butyl ester], 1 to 25 µM.
